Experimental data published in paper PMC5428567, “Pentameric ligand-gated ion channels exhibit distinct transmembrane domain archetypes for folding/expression and function” (Scientific Reports, 2017).

Columns and labels:
ELIC V260A = molecular target: T1, ELIC V260A (Dickeya chrysanthemi, UniProt P0C7B7, V260A); test: TEVC cysteamine-induced current, ELIC V260A; format: cell-based; settings: Xenopus laevis oocytes; ±SD; n=8
T1 construct: expressed in transfected cells; host or cells: Xenopus laevis oocytes injected with cRNA
T1 sequence (P0C7B7 whole entry V260A): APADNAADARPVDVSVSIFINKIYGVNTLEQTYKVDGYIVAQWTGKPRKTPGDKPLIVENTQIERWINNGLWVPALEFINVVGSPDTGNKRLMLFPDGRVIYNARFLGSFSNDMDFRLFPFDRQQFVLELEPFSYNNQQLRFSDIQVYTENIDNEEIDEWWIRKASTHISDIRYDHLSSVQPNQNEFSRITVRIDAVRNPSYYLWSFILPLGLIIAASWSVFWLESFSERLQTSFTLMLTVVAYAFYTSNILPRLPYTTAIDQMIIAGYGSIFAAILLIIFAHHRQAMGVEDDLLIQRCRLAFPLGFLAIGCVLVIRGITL
Description: (§1) To examine how different physical interactions at the M4-M1/M3 interface in both GLIC and ELIC (Fig. 1) influence function, we mutated each residue to Ala, and characterized how each mutation influenced agonist-induced channel gating using two-electrode voltage clamp electrophysiology. Both GLIC and ELIC are cation-selective ion channels that transiently gate open in response to agonist binding, although GLIC responds to protons while ELIC responds to primary amines, such as cysteamine, [34].
(§2) Stage V–VI oocytes were collected as previously described, injected with cRNA, and allowed to incubate one to four days at 16 °C in ND96 + buffer (5 mM HEPES, 96 mM NaCl, 2 mM KCl, 1 mM MgCl2, 1 mM CaCl2, and 2 mM Pyruvate). Whole cell currents were recorded using a two-electrode voltage clamp apparatus (OC-725C oocyte clamp; Holliston, MA). For GLIC, whole cell currents were recorded from injected oocytes (3–20 ng cRNA) immersed in MES buffer (140 mM NaCl, 2.8 mM KCl, 2 mM MgCl2, and 10 mM MES). Currents through the plasma membrane in response to pH jumps (pH 7.3 down to the indicated pH values) were measured with the transmembrane voltage clamped at voltages between −20 mV and −40 mV depending on the level of expression, typically −20 mV. […]

ELIC L204A = molecular target: T2, ELIC L204A (Dickeya chrysanthemi, UniProt P0C7B7, L204A); test: TEVC cysteamine-induced current, ELIC L204A; format: cell-based; settings: Xenopus laevis oocytes; ±SD; n=8
T2 construct: expressed in transfected cells; host or cells: Xenopus laevis oocytes injected with cRNA
T2 sequence (P0C7B7 whole entry L204A): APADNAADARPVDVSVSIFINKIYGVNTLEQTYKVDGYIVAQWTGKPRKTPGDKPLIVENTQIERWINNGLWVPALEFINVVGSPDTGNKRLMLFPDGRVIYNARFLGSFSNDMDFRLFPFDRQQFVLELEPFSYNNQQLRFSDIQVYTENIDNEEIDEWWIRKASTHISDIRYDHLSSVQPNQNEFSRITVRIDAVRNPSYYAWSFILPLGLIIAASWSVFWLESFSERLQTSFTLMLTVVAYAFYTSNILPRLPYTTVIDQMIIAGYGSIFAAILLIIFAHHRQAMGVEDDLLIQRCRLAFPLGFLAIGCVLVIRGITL
Description: as §1, §2

ELIC L295A = system: ELIC L295A; parameters: method as in Henault et al.[9], [18], [29]; settings: Xenopus laevis oocytes; ±SD; n=8; ref Henault et al.[9], [18], [29]; cited from earlier work
ELIC S271A + F303A = molecular target: T3, ELIC S271A + F303A (Dickeya chrysanthemi, UniProt P0C7B7, F303A/S271A); test: TEVC cysteamine-induced current, ELIC S271A + F303A; format: cell-based; settings: Xenopus laevis oocytes; ±SD; n=8
T3 construct: expressed in transfected cells; host or cells: Xenopus laevis oocytes injected with cRNA (pTLN plasmid)
T3 sequence (P0C7B7 whole entry S271A/F303A): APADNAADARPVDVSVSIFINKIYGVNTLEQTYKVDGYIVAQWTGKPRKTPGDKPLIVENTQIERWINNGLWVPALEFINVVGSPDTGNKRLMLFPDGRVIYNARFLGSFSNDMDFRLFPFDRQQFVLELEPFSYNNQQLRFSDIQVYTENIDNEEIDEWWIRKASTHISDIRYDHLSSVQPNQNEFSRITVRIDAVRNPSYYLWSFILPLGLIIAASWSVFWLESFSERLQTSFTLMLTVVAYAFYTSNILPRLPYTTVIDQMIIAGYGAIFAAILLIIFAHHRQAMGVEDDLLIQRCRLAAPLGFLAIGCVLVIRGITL
Description: as §1, §2

ELIC I310A = system: ELIC I310A; parameters: method as in Henault et al.[9], [18], [29]; settings: Xenopus laevis oocytes; ±SD; n=10; ref Henault et al.[9], [18], [29]; cited from earlier work
ELIC P304A = molecular target: T4, ELIC P304A (Dickeya chrysanthemi, UniProt P0C7B7, P304A); test: TEVC cysteamine-induced current, ELIC P304A; format: cell-based; settings: Xenopus laevis oocytes; EC50 values were not obtained
T4 construct: expressed in transfected cells; host or cells: Xenopus laevis oocytes injected with cRNA (pTLN plasmid)
T4 sequence (P0C7B7 whole entry P304A): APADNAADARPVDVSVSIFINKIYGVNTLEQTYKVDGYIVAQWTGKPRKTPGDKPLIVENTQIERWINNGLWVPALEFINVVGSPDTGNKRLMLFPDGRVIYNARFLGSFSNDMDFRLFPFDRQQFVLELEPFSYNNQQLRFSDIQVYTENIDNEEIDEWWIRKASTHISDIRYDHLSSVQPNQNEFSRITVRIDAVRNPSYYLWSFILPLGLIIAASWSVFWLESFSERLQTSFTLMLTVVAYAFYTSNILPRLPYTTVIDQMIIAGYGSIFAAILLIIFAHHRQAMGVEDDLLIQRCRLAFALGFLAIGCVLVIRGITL
Description: as §1, §2

ELIC G270A = molecular target: T5, ELIC G270A (Dickeya chrysanthemi, UniProt P0C7B7, G270A); test: TEVC cysteamine-induced current, ELIC G270A; format: cell-based; settings: Xenopus laevis oocytes; ±SD; n=8
T5 construct: expressed in transfected cells; host or cells: Xenopus laevis oocytes injected with cRNA (pTLN plasmid)
T5 sequence (P0C7B7 whole entry G270A): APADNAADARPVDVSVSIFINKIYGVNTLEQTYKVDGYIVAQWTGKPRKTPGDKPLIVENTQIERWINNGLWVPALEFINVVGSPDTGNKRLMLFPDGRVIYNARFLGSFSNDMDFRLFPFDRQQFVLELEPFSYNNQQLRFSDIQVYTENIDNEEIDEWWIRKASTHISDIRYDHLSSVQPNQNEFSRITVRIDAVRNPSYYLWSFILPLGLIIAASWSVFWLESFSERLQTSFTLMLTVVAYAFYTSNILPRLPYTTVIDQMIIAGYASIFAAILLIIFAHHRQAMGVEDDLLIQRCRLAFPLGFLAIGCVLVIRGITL
Description: as §1, §2

ELIC G268A = molecular target: T6, ELIC G268A (Dickeya chrysanthemi, UniProt P0C7B7, G268A); test: TEVC cysteamine-induced current, ELIC G268A; format: cell-based; settings: Xenopus laevis oocytes; ±SD; n=8
T6 construct: expressed in transfected cells; host or cells: Xenopus laevis oocytes injected with cRNA (pTLN plasmid)
T6 sequence (P0C7B7 whole entry G268A): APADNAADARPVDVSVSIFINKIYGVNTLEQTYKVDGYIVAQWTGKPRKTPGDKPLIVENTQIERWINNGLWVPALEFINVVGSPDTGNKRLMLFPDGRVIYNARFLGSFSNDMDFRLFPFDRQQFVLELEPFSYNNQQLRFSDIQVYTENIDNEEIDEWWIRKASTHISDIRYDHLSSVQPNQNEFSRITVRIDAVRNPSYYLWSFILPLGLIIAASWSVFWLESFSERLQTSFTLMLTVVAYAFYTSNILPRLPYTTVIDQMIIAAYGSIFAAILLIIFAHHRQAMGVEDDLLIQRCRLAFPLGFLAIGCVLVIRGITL
Description: as §1, §2

ELIC I296A = system: ELIC I296A; parameters: method as in Henault et al.[9], [18], [29]; settings: Xenopus laevis oocytes; ±SD; n=10; ref Henault et al.[9], [18], [29]; cited from earlier work
ELIC G318A = system: ELIC G318A; parameters: method as in Henault et al.[9], [18], [29]; settings: Xenopus laevis oocytes; ±SD; n=10; ref Henault et al.[9], [18], [29]; cited from earlier work
ELIC I319A = system: ELIC I319A; parameters: method as in Henault et al.[9], [18], [29]; settings: Xenopus laevis oocytes; ±SD; n=11; ref Henault et al.[9], [18], [29]; cited from earlier work
ELIC I208A = molecular target: T7, ELIC I208A (Dickeya chrysanthemi, UniProt P0C7B7, I208A); test: TEVC cysteamine-induced current, ELIC I208A; format: cell-based; settings: Xenopus laevis oocytes; ±SD; n=8
T7 construct: expressed in transfected cells; host or cells: Xenopus laevis oocytes injected with cRNA
T7 sequence (P0C7B7 whole entry I208A): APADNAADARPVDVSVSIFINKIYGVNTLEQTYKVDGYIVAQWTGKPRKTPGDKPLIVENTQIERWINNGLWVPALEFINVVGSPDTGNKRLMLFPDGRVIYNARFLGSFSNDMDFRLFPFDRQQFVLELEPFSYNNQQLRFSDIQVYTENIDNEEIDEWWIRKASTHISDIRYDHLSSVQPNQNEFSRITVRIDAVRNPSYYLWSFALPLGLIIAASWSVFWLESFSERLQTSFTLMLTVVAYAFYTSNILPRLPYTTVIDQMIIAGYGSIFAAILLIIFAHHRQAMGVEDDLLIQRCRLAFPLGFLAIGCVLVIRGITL
Description: as §1, §2

ELIC G311A = system: ELIC G311A; parameters: method as in Henault et al.[9], [18], [29]; settings: Xenopus laevis oocytes; ±SD; n=11; ref Henault et al.[9], [18], [29]; cited from earlier work
ELIC I215A = molecular target: T8, ELIC I215A (Dickeya chrysanthemi, UniProt P0C7B7, I215A); test: TEVC cysteamine-induced current, ELIC I215A; format: cell-based; settings: Xenopus laevis oocytes; ±SD; n=8
T8 construct: expressed in transfected cells; host or cells: Xenopus laevis oocytes injected with cRNA
T8 sequence (P0C7B7 whole entry I215A): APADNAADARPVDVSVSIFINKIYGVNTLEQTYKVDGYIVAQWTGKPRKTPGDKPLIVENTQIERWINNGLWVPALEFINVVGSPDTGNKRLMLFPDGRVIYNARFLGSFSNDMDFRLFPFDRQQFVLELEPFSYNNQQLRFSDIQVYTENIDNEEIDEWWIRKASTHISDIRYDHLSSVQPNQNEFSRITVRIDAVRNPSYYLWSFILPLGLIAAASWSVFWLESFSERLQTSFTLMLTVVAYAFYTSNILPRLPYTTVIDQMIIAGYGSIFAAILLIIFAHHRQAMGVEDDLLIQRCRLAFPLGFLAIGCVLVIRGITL
Description: as §1, §2

ELIC F222A + C299A = molecular target: T9, ELIC F222A + C299A (Dickeya chrysanthemi, UniProt P0C7B7, C299A/F222A); test: TEVC cysteamine-induced current, ELIC F222A + C299A; format: cell-based; settings: Xenopus laevis oocytes; ±SD; n=8
T9 construct: expressed in transfected cells; host or cells: Xenopus laevis oocytes injected with cRNA (pTLN plasmid)
T9 sequence (P0C7B7 whole entry F222A/C299A): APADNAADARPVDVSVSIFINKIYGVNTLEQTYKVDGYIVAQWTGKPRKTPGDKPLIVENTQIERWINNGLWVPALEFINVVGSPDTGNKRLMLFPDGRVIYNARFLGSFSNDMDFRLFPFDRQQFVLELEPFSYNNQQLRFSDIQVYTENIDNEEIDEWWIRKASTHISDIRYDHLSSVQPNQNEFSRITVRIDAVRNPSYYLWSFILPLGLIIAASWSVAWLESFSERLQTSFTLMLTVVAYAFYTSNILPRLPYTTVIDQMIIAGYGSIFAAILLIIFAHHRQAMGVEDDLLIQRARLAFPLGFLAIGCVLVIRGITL
Description: as §1, §2

ELIC L213A = molecular target: T10, ELIC L213A (Dickeya chrysanthemi, UniProt P0C7B7, L213A); test: TEVC cysteamine-induced current, ELIC L213A; format: cell-based; settings: Xenopus laevis oocytes; ±SD; n=8
T10 construct: expressed in transfected cells; host or cells: Xenopus laevis oocytes injected with cRNA
T10 sequence (P0C7B7 whole entry L213A): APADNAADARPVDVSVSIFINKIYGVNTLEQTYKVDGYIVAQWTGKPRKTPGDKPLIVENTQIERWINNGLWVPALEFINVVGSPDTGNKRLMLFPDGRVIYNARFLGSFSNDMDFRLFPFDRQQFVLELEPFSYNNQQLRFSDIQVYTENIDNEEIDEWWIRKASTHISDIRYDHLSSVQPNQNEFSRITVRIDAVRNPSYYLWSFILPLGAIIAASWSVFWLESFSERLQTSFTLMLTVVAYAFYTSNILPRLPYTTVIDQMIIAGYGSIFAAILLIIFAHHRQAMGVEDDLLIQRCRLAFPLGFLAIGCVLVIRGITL
Description: as §1, §2

ELIC W219A = molecular target: T11, ELIC W219A (Dickeya chrysanthemi, UniProt P0C7B7, W219A); test: TEVC cysteamine-induced current, ELIC W219A; format: cell-based; settings: Xenopus laevis oocytes; ±SD; n=8
T11 construct: expressed in transfected cells; host or cells: Xenopus laevis oocytes injected with cRNA
T11 sequence (P0C7B7 whole entry W219A): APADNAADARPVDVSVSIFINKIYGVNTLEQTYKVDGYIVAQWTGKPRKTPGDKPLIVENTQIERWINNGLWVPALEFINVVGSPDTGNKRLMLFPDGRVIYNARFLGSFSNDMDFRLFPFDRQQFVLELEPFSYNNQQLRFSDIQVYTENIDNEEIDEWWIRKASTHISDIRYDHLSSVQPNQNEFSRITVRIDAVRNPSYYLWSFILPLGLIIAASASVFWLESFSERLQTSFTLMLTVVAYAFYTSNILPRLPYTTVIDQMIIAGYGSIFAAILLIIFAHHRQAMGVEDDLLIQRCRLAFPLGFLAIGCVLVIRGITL
Description: as §1, §2

ELIC W223A + R300A = molecular target: T12, ELIC W223A + R300A (Dickeya chrysanthemi, UniProt P0C7B7, R300A/W223A); test: TEVC cysteamine-induced current, ELIC W223A + R300A; format: cell-based; settings: Xenopus laevis oocytes; ±SD; n=8
T12 construct: expressed in transfected cells; host or cells: Xenopus laevis oocytes injected with cRNA (pTLN plasmid)
T12 sequence (P0C7B7 whole entry W223A/R300A): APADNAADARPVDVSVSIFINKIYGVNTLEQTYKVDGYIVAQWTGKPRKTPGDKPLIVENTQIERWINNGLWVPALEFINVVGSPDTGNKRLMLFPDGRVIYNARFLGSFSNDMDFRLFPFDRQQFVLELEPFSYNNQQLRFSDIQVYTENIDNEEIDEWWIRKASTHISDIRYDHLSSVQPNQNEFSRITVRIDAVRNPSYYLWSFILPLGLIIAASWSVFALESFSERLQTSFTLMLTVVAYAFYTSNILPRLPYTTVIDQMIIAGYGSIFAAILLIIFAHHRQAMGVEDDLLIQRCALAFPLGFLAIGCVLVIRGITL
Description: as §1, §2

Q: For `NCCS` [cysteamine], which EC50 (ELIC V260A) is on record?
A: 460 ± 50 µM

Q: What about the “−logEC50” value (ELIC V260A) of the same compound?
A: 3.34 ± 0.05

Q: And the EC50 (ELIC L204A)?
A: 3550 ± 310 µM

Q: What about the “−logEC50” value (ELIC L204A) of the same compound?
A: 2.45 ± 0.04

Q: And the EC50 (ELIC L295A)?
A: 500 ± 100 µM

Q: And the “−logEC50” value (ELIC L295A)?
A: 3.30 ± 0.09

Q: And the EC50 (ELIC S271A + F303A)?
A: 620 ± 130 µM

Q: What about the “−logEC50” value (ELIC S271A + F303A) of the same compound?
A: 3.21 ± 0.09

Q: And the EC50 (ELIC I310A)?
A: 880 ± 90 µM

Q: What about the “−logEC50” value (ELIC I310A) of the same compound?
A: 3.05 ± 0.04

Q: And the desensitization kinetics (ELIC P304A)?
A: substantially altered desensitization kinetics

Q: And the EC50 (ELIC G270A)?
A: 1020 ± 100 µM

Q: What about the “−logEC50” value (ELIC G270A) of the same compound?
A: 2.99 ± 0.04

Q: And the EC50 (ELIC G268A)?
A: 1190 ± 140 µM

Q: And the “−logEC50” value (ELIC G268A)?
A: 2.92 ± 0.05

Q: And the EC50 (ELIC I296A)?
A: 270 ± 30 µM

Q: What about the “−logEC50” value (ELIC I296A) of the same compound?
A: 3.57 ± 0.05

Q: What about the EC50 (ELIC G318A) of the same compound?
A: 760 ± 130 µM

Q: What about the “−logEC50” value (ELIC G318A) of the same compound?
A: 3.12 ± 0.08

Q: And the EC50 (ELIC I319A)?
A: 860 ± 160 µM

Q: What about the “−logEC50” value (ELIC I319A) of the same compound?
A: 3.06 ± 0.08

Q: What about the EC50 (ELIC I208A) of the same compound?
A: 250 ± 50 µM

Q: And the “−logEC50” value (ELIC I208A)?
A: 3.60 ± 0.09

Q: What about the EC50 (ELIC G311A) of the same compound?
A: 510 ± 100 µM

Q: What about the “−logEC50” value (ELIC G311A) of the same compound?
A: 3.29 ± 0.09

Q: What about the EC50 (ELIC I215A) of the same compound?
A: 320 ± 40 µM

Q: And the “−logEC50” value (ELIC I215A)?
A: 3.49 ± 0.05

Q: What about the EC50 (ELIC F222A + C299A) of the same compound?
A: 100 ± 20 µM

Q: What about the “−logEC50” value (ELIC F222A + C299A) of the same compound?
A: 4.00 ± 0.09

Q: And the EC50 (ELIC L213A)?
A: 320 ± 20 µM

Q: What about the “−logEC50” value (ELIC L213A) of the same compound?
A: 3.49 ± 0.03

Q: And the EC50 (ELIC W219A)?
A: 910 ± 50 µM

Q: What about the “−logEC50” value (ELIC W219A) of the same compound?
A: 3.04 ± 0.02

Q: What about the EC50 (ELIC W223A + R300A) of the same compound?
A: 800 ± 110 µM

Q: And the “−logEC50” value (ELIC W223A + R300A)?
A: 3.10 ± 0.05
